# Target: PD-1/PD-L1 (Homo sapiens, UniProt Q9NZQ7)
# Assay: PD-1/PD-L1 biochemical protein-protein interaction assay (ALPHA)
# Assay type: binding
# Settings: 5 nM His tagged PD-L1, 5 nM biotinylated PD-1, 2 hours at 25° C.; read-out: ALPHA-LISA IC50
# Description: Compounds were tested in protein-protein interaction assay to determine if they can specifically block the interaction between the extracellular domains of PD-1/PD-L1. Binding of the protein pairs is measured using a bead based amplified luminescent proximity homogeneous assay (ALPHA) platform. Binding of each protein pair results in proximity of the donor and acceptor beads which leads to an increase in ALPHA signal. Assays are performed in 50 mM Tris (pH 7.4), 0.0015% Triton X-100, 0.1% BSA. Final protein concentration in the assays were 5 nM (His tagged PD-L1), 5 nM (biotinylated PD-1), 10 μg/ml ALPHA assay acceptor beads, 10 μg/ml ALPHA assay donor beads. After an assay reaction time of 2 hours at 25° C., binding was measured. The specificity of the binding was determined by testing the compounds in an assay with an irrelevant protein that is both His tagged and biotinylated. The final protein concentration used in the assay was 5 nM, 10 μg/ml ALPHA assay acceptor beads, 10 μg/ml ALPHA assay donor beads. After an assay reaction time of 2 hours at 25° C., binding was measured. IC50 values were calculated from the fit of the dose-response curves to a four-parameter equation.
# The specificity of the binding was determined by testing the compounds in an assay with an irrelevant protein that is both His tagged and biotinylated (ErbB3/her3). The final protein concentration used in the assay was 5 nM, 10 μg/mL ALPHA assay acceptor beads, 10 μg/mL ALPHA assay donor beads. After an assay reaction time of 2 hours at 25° C., binding was measured. IC50 values were calculated from the fit of the dose-response curves to a four-parameter equation.
# Chain of PD-1/PD-L1 (Q9NZQ7 19-238 limits assumed): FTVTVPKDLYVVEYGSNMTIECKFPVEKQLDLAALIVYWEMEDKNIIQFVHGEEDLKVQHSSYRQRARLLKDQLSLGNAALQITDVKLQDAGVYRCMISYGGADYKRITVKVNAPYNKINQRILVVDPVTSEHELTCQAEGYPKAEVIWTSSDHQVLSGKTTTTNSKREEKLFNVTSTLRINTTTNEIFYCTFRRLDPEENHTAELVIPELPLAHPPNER
row,Structure (SMILES),IC50 [nM]
1,"Cc1cc(CN[C@H](CO)C(=O)O)c(OCc2cccc(C#N)c2)cc1OCc1cccn(-c2ccc3c(c2)OCCO3)c1=O [Compound 7, (2-((3-cyanobenzyl)oxy)-4-((1-(2,3-dihydrobenzo[b][1,4]dioxin-6-yl)-2-oxo-1,2-dihydropyridin-3-yl)methoxy)-5-methylbenzyl)-D-serine]",1100
2,"Cc1cc(CN2C[C@H](O)C[C@@H]2C(=O)O)c(OCc2cccc(C#N)c2)cc1OCc1cccn(-c2ccc3c(c2)OCCO3)c1=O [Compound 8, (2R,4R)-1-(2-((3-cyanobenzyl)oxy)-4-((1-(2,3-dihydrobenzo[b][1,4]dioxin-6-yl)-2-oxo-1,2-dihydropyridin-3-yl)methoxy)-5-methylbenzyl)-4-hydroxypyrrolidine-2-carboxylic acid]",3400
3,"Cc1cc(CN[C@](C)(CO)C(=O)O)c(OCc2cccc(C#N)c2)cc1OCc1cccn(-c2ccc3c(c2)OCCO3)c1=O [Compound 9, (R)-2-((2-((3-cyanobenzyl)oxy)-4-((1-(2,3-dihydrobenzo[b][1,4]dioxin-6-yl)-2-oxo-1,2-dihydropyridin-3-yl)methoxy)-5-methylbenzyl)amino)-3-hydroxy-2-methylpropanoic acid]",1200
4,"Cc1cc(CN[C@@H](CO)C(=O)O)c(OCc2cccc(C#N)c2)cc1OCc1cccn(-c2ccc3c(c2)OCCO3)c1=O [Compound 10, (2-((3-cyanobenzyl)oxy)-4-((1-(2,3-dihydrobenzo[b][1,4]dioxin-6-yl)-2-oxo-1,2-dihydropyridin-3-yl)methoxy)-5-methylbenzyl)-L-serine]",1200
5,Cc1cc(CN[C@@H](C)C(=O)O)c(OCc2cccc(C#N)c2)cc1OCc1cccn(-c2ccc3c(c2)OCCO3)c1=O [Compound 11],3900
6,Cc1cc(CN(C)[C@@H](CO)C(=O)O)c(OCc2cccc(C#N)c2)cc1OCc1cccn(-c2ccc3c(c2)OCCO3)c1=O [Compound 12],1600
7,"Cc1cc(CN[C@H](CO)C(=O)O)c(OCc2cccc(Cl)c2)cc1OCc1cccn(-c2ccc3c(c2)OCCO3)c1=O [Compound 101, (2-((3-chlorobenzyl)oxy)-4-((1-(2,3-dihydrobenzo[b][1,4]dioxin-6-yl)-2-oxo-1,2-dihydropyridin-3-yl)methoxy)-5-methylbenzyl)-D-serine]",3000
8,"Cc1cc(CN[C@H](CO)C(=O)O)c(OCc2cccnc2)cc1OCc1cccn(-c2ccc3c(c2)OCCO3)c1=O [Compound 103, (4-((1-(2,3-dihydrobenzo[b][1,4]dioxin-6-yl)-2-oxo-1,2-dihydropyridin-3-yl)methoxy)-5-methyl-2-(pyridin-3-ylmethoxy)benzyl)-D-serine]",1000
9,"N#Cc1cccc(COc2cc(OCc3cccn(-c4ccc5c(c4)OCCO5)c3=O)c(Cl)cc2CN[C@H](CO)C(=O)O)c1 [Compound 202, (5-chloro-2-((3-cyanobenzyl)oxy)-4-((1-(2,3-dihydrobenzo[b][1,4]dioxin-6-yl)-2-oxo-1,2-dihydropyridin-3-yl)methoxy)benzyl)-D-serine]",300
10,CCc1cc(CN[C@H](CO)C(=O)O)c(OCc2cccc(C#N)c2)cc1OCc1cccn(-c2ccc3c(c2)OCCO3)c1=O [Compound 203],2700
11,CC(C)c1cc(CN[C@H](CO)C(=O)O)c(OCc2cccc(C#N)c2)cc1OCc1cccn(-c2ccc3c(c2)OCCO3)c1=O [Compound 204],3600
12,"N#Cc1cccc(COc2cc(OCc3cccn(-c4ccc5c(c4)OCCO5)c3=O)c(Cl)cc2CNC[C@@H]2CCC(=O)N2)c1 [Compound 205, (S)-3-((4-chloro-5-((1-(2,3-dihydrobenzo[b][1,4]dioxin-6-yl)-2-oxo-1,2-dihydropyridin-3-yl)methoxy)-2-((((5-oxopyrrolidin-2-yl)methyl)amino)methyl)phenoxy)methyl)benzonitrile]",360
13,"N#Cc1cncc(COc2cc(OCc3cccn(-c4ccc5c(c4)OCCO5)c3=O)c(Cl)cc2CN[C@H](CO)C(=O)O)c1 [Compound 207, (5-chloro-2-((5-cyanopyridin-3-yl)methoxy)-4-((1-(2,3-dihydrobenzo[b][1,4]dioxin-6-yl)-2-oxo-1,2-dihydropyridin-3-yl)methoxy)benzyl)-D-serine]",320
14,O=C(O)[C@@H](CO)NCc1cc(Cl)c(OCc2cccn(-c3ccc4c(c3)OCCO4)c2=O)cc1OCc1cncc(-n2ccnn2)c1 [Compound 209],550
